Test results as given in US4476125A, “Benzobisoxazinetetrones and anti-allergic use thereof” (USV Pharmaceutical Corporation, priority 1983, dated 1984).
pIC50: −log10 of the molar value.

Key:
[1] = tested on: rat passive cutaneous anaphylaxis (blued wheal area); experiment: Passive cutaneous anaphylaxis in the rat (PCA); assay type: in vivo, rat (male, Sprague Dawley); conditions: 125 mg/kg p.o.; antigen challenge ten minutes after oral administration
Excerpt: Passive Cutaneous Anaphalixis in the Rat (Based on I. Mota, Life Science, 1963, F 465; and Z. Ovary and O. G. Bier, Proc. Soc. Exp. Biol. and Med., 1952, 81, 584)--Male, Sprague Dawley rats were sensitized at dorsal sites by intradermal injection of syngeneic serum containing IgE anti-ovalbumin.Forty-eight hours later, groups of four rats were given either vehicle (1% methylcellulose) or graded does of compound. Either ten minutes after oral drug administration or five minutes after i.p. drug dosing, rats were challenged intravenously with antigen (ovalbumin) in 1% Evans blue dye. Thirty minutes after antigen challenge, the rats were sacrificed by cervical dislocations, the dorsal skins were reflected and blued wheal areas measured. Mean values±S.D. for wheal areas in control and drug-treated groups were detemined and compared statistically using Student's t-test.

rat mast cells = experiment: Rat Mast Cell (RMC) histamine release from passively sensitized rat mast cells; assay type: cell-based; conditions: passively sensitized in vitro with anti-ovalbumin serum, antigen-induced histamine release, 0.1% DMSO, read-out: RMC I50
Excerpt: The compounds of the present invention are useful as intermediates for making benzo-bis-oxazoles. Further, the compounds of the present invention are useful as antiallergic agents as evidenced by their activity as blockers of histamine release from passively sensitized rat mast cells (RMC) and in the rat passive cutaneous test (PCA). A brief description of the test methods follow.
Rat Mast Cell (RMC) Studies--(Based on E. Kusner, B. Dabnick, D. F. Herzig, J. Pharm. Exp., Ther., 1973, 184, 41.) Rat mast cells were passively sensitized in vitro with anti-ovalbumin serum. Following a 15 minute incubation, the spontaneous histamine release (SR) in the absence of antigent and AIR (in the presence of antigen) were measured fluorometrically with a Technicon Auto Analyzer®.

SMILES	PCA % Inhibition [1]	pIC50 (rat mast cells)
O=c1[nH]c2cc3[nH]c(=O)c(=O)oc3cc2oc1=O [Example 1F, Benzo[1,2-b;5,4-b]-bis-[1,4]oxazine-2,3,7,8-tetrone]	26%	5.52
O=c1[nH]c2cc3oc(=O)c(=O)[nH]c3cc2oc1=O [Example 2E, Benzo(1,2-b;4,5-b)-bis-[1,4]oxazine-2,3,7,8-tetrone]	42%	5.92
